The source made the active and inactive calls. The rule behind the calls is not given here.
Assays:
[1] = test system: B16-F10; experiment: Induction of apoptosis in mouse B16-F10 cells assessed as late apoptotic cells at 10 uM incubated for 48 hrs by Annexin V-FITC/PI staining based flow cytometry analysis (reference value: 5.02 %); type: functional
[2] = biological target: T1, Histone deacetylase 3 (Mus musculus) (UniProt O88895); experiment: Inhibition of HDAC3 in mouse B16-F10 cells assessed as upregulation of Ac-H3 level incubated for 24 hrs by Western blotting analysis; type: cell-based; details: dose 1-8 µM
T1 sequence (whole entry): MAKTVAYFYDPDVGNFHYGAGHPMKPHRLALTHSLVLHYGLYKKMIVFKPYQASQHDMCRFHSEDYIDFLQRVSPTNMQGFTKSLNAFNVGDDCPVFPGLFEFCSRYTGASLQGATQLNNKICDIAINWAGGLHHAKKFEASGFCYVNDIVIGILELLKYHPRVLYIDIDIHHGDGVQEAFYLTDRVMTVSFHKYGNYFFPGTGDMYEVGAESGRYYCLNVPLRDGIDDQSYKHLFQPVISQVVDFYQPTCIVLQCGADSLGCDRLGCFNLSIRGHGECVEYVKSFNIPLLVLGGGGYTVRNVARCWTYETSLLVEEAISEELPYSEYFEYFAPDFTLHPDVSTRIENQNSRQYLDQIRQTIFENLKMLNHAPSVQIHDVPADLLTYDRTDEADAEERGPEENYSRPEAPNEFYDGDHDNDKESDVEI

[3] = biological target: Programmed cell death protein 1/Programmed cell death 1 ligand 1 (Homo sapiens) (UniProt Q15116+Q9NZQ7); experiment: Inhibition of PD-1/PD-L1 (unknown origin) interaction assessed as inhibition rate at 0.1 uM by HTRF assay relative to control; type: protein-complex assay
[4] = test system: B16-F10; experiment: Induction of apoptosis in mouse B16-F10 cells assessed as viable cells at 10 uM incubated for 48 hrs by Annexin V-FITC/PI staining based flow cytometry analysis (reference value: 92.3%); type: functional; details: read-out: Activity
[5] = test system: B16-F10; experiment: Induction of cell cycle arrest in mouse B16-F10 cells assessed as accumulation of cells at G2/M phase at 2 uM incubated for 48 hrs by PI staining based flow cytometry analysis (reference value: 5.87%); type: functional
[6] = test system: B16-F10; experiment: Induction of apoptosis in mouse B16-F10 cells assessed as late apoptotic cells at 8 uM incubated for 48 hrs by Annexin V-FITC/PI staining based flow cytometry analysis (reference value: 5.02 %); type: functional
[7] = biological target: T2, Protein deacetylase HDAC6 (Homo sapiens, UniProt Q9UBN7); experiment: Inhibition of human recombinant HDAC6 using Ac-Leu-Gly-Lys (Ac)-AMC as substrate preincubated for 10 mins followed by substrate addition and measured after 45 mins by TECAN microtiter plate reader analysis
T2 sequence (Q9UBN7 whole entry): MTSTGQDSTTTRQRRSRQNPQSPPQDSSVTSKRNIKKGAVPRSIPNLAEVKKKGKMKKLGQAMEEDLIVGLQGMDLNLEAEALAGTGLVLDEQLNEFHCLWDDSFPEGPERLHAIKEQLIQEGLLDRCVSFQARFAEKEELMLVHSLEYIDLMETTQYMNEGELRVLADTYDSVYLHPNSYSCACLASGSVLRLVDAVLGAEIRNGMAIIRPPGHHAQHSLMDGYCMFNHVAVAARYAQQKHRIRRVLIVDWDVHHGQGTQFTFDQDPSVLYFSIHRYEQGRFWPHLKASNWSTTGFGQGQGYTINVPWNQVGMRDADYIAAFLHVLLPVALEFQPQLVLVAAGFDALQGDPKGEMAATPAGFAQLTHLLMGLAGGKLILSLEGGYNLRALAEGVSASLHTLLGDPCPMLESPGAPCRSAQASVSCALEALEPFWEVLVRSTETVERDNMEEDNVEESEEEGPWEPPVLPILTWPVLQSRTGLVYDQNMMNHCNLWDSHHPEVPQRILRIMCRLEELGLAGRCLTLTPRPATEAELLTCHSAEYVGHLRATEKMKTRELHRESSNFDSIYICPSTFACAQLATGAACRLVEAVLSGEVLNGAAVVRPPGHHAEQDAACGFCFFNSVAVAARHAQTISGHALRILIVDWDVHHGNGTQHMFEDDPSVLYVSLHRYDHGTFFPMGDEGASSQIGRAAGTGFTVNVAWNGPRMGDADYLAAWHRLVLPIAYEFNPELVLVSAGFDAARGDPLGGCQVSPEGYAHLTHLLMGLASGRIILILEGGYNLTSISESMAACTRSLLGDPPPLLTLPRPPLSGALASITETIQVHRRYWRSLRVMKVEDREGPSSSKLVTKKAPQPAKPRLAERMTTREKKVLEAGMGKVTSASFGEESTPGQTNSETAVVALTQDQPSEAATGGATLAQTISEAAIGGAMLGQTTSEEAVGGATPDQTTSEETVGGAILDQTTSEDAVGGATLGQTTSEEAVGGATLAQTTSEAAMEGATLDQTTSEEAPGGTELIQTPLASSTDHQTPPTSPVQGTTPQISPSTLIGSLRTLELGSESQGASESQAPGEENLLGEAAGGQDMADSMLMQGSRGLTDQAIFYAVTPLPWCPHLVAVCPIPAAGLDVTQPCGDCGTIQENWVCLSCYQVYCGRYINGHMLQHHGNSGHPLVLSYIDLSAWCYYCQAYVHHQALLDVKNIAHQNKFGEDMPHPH

[8] = test system: B16-F10; experiment: Induction of cell cycle arrest in mouse B16-F10 cells assessed as accumulation of cells at G0/G1 phase at 4 uM incubated for 48 hrs by PI staining based flow cytometry analysis (reference value: 70.09%); type: functional
[9] = Toxicity in C57BL/6J mouse implanted with mouse B16-F10 cells assessed as heart damage at 20 to 40 mg/kg, ip administered once daily for 9 days by H and E staining based analysis; type: organism-based; details: in vivo, 216 h, dose 20-40 mg/kg, time 9 day
[10] = test system: B16-F10; experiment: Immunomodulatory activity in mouse B16-F10 cells implanted in C57BL/6J mouse assessed as percentage of CD3 positive CD4 positive cells in tumor at 20 mg/kg, ip administered once daily for 9 days by flow cytometric analysis (reference value: 0.20 %); type: functional; details: time 9 day
[11] = test system: 4T1; experiment: Antiproliferative activity against mouse 4T1 cells assessed as cell growth inhibition incubated for 48 hrs by MTT assay; type: functional, cell-based; details: 4T1, 48 h
[12] = test system: B16-F10; experiment: Antitumor activity against mouse B16-F10 cells implanted in C57BL/6J mouse assessed as tumor growth inhibition at 40 mg/kg, ip administered once daily for 9 days; type: functional; details: B16-F10, 216 h, time 9 day, read-out: TGI
[13] = test system: B16-F10; experiment: Induction of apoptosis in mouse B16-F10 cells assessed as viable cells at 8 uM incubated for 48 hrs by Annexin V-FITC/PI staining based flow cytometry analysis (reference value: 92.3%); type: functional; details: read-out: Activity
[14] = test system: A-375; experiment: Antiproliferative activity against human A-375 cells assessed as cell viability incubated for 48 hrs by MTT assay; type: functional, cell-based
[15] = test system: B16-F10; experiment: Induction of cell cycle arrest in mouse B16-F10 cells assessed as accumulation of cells at G2/M phase at 8 uM incubated for 48 hrs by PI staining based flow cytometry analysis (reference value: 5.87%); type: functional

inhibition [2]: Dose-dependent-effect | IC50 [7]: > 10 µM | IC50 [11]: 4.66 µM
Structure (SMILES): CCCNNC(=O)CCCNCc1ccc(-c2cccc(-c3ccccc3)c2C)nc1OC
Activity [1]: 14.8% | inhibition [3]: 55.4% | viability at 10 µM [4]: 31.3% | Activity [5]: 4.96% | Activity [6]: 11.4% | Activity [8]: 91.66% | Activity [9]: Non-toxic | Activity [10]: 1.75% | inhibition in vivo at 40 mg/kg [12]: 66.5% | viability at 8 µM [13]: 53.6% | Activity [14]: Active | Activity [15]: 2.69%

— ChEMBL document CHEMBL6109156, “Discovery of Dual PD-L1/HDAC3 Inhibitors for Tumor Immunotherapy” (J Med Chem, 2025)
